# Where “and” joins values, the source holds several entries; their conditions need not be identical. Identical values can stand only once.
# Assays:
# [1] = Clinical course of migraine/headache in chronic pain patients (Cases #1 and #2); assay type: in vivo, human
# [2] = tested on: mu-receptor subfamily of opioid cell membrane binding/transduction sites; conditions: cited from earlier work
# [3] = Urinary parameter-normalized urine methadone concentration, nu
# [4] = Renal clearance / renal excretion of methadone from timed urine collections; conditions: as a function of urine volume production rate; 12 control subjects
# [5] = Plasma methadone concentration, p, calculated from spot urine (urine methadone, pH and specific gravity); conditions: patient one, Tables 3 and 4, barbiturate-containing compounds discontinued
# [6] = Plasma methadone concentration versus daily oral methadone dose (FIG. 6, 8300 urine samples from 150 patients); conditions: human, 70 mg/day
structure (smiles),measurement,setting,value
Oc1ccc2c3c1O[C@H]1[C@@H](O)CC[C@@]4(O)[C@@H](C2)N(CC2CCC2)CC[C@]314 [nalbuphine],control of pain,"[1]; patient one, self-administered IM, before methadone",failure
CCC(=O)C(CC(C)N(C)C)(c1ccccc1)c1ccccc1 (centres unmarked) [methadone],stress-related headaches,"[1]; patient one, 130 mg per day",slowly decreasing in severity and frequency
same,migraines,"[1]; patient one, stabilized on 130 mg per day, plasma level above 135 ng/ml",ceased completely
same,migraine frequency and severity,"[1]; patient two, gradual titration to 35 mg of methadone",slowly decayed in frequency and severity
same,action at mu-receptor,[2],"potent, and nearly pure (no interfering metabolites), agonist"
same,"urinary parameter-normalized urine methadone concentration, nu","[3]; Table 1, compliant patient, dose 60",7448 and 9473
same,"urinary parameter-normalized urine methadone concentration, nu, mean","[3]; Table 1, mean of 12 tests, dose 60-70",7427
same,"urinary parameter-normalized urine methadone concentration, nu, mean","[3]; Table 2, patient two, mean of 12 tests, dose 45",17936
same,"urinary parameter-normalized urine methadone concentration, nu","[3]; Table 3, patient one (prior barbiturate use), 1991, dose 50",2924
same,"urinary parameter-normalized urine methadone concentration, nu","[3]; Table 3, patient one (prior barbiturate use), 1991, dose 65",1367 and 911
same,"urinary parameter-normalized urine methadone concentration, nu","[3]; Table 3, patient one (prior barbiturate use), 1991, dose 80",1070
same,"urinary parameter-normalized urine methadone concentration, nu, mean","[3]; Table 3, patient one, mean of 12 tests, dose 40-100",1591
same,"urinary parameter-normalized urine methadone concentration, nu","[3]; Table 4, patient one, barbiturates discontinued, 1992, dose 110",6580 and 6703 and 10880 and 6025
same,"urinary parameter-normalized urine methadone concentration, nu","[3]; Table 4, patient one, barbiturates discontinued, 1992, dose 120",8970 and 6778 and 8074 and 11966 and 6031
same,"urinary parameter-normalized urine methadone concentration, nu","[3]; Table 4, patient one, barbiturates discontinued, 1992, dose 130",7728 and 5944 and 5117
same,"urinary parameter-normalized urine methadone concentration, nu, mean","[3]; Table 4, patient one, mean of 12 tests, dose 110-130",7566
same,"urinary parameter-normalized urine methadone concentration, nu, mean","[3]; Table 6, Case #4, mean, dose 120-140",6874
same,Pred (flag: nu outside acceptable statistical range),"[3]; Table 6, Case #4, dose 140",High
same,"urinary parameter-normalized urine methadone concentration, nu, mean","[3]; Table 7, Case #5, mean of 13 tests, dose 130",14502
same,Pred (flag: nu outside acceptable statistical range),"[3]; Table 7, Case #5, dose 130",LOW and HIGH
same,renal excretion rate during a typical day,[4],relatively constant
same,plasma methadone levels over time,[5],increased in this patient over time
same,concentration at 24 h,[6],200 ng/mL

# From patent US6124136A, “Method of monitoring compliance with methadone treatment program” (U. D. Testing, Inc., priority 1993, dated 2000)
